The values that follow come from patent publication US20240424113A1, “CONJUGATES COMPRISING ANTIFUNGALS AND HEAT SHOCK PROTEIN 90 (HSP90) INHIBITORS AND METHODS OF USE THEREOF” (Bright Angel Therapeutics Inc., priority 2021, published 2024).

For test [1], the target named is Hsp90 Nuclear Binding Domain (NBD) (Candida albicans (strain SC5314 / ATCC MYA-2876) (Yeast), UniProt P46598). Briefly: Surface Plasmon Resonance (SPR) binding, C. albicans Hsp90 NBD. To be noted: biotinylated Hsp90 NBD on streptavidin chip, 25° C., 1:1 binding model. The procedure:
(§1) Surface Plasmon Resonance (SPR) Experiments. SPR experiments were performed on a Biacore S200 instrument at 25° C. Biotinylated Hsp90 Nuclear Binding Domain (NBD) was diluted to 40 μg/mL and immobilized on a streptavidin chip (Sensor Chip SA, GE Healthcare) at a density of 2000-2500 response units (RU) on the biosensor surface.
(§2) Recombinant Hsp90 NBDs were expressed and purified as previously described (Whitesell et al., Nat Commun 10, 402 (2019)) with the following modification; Hsp90 NBD expression constructs were modified to encode a C-terminal AviTag for site-specific on-column biotinylation with a BirA biotin-ligase kit (Avidity LLC; BirA-500). Stock protein solutions in 50% glycerol were stored at −20° C. until dilution into relevant buffers. Binding experiments were done in HBS-P (0.01 M HEPES, pH 7.4, 0.15 M NaCl, 0.005% v/v surfactant P20, GE Healthcare) with 2% DMSO at flow rate of 40 μL/min. Test compounds (dilution series) were injected with a 60 s association time and 600 s dissociation time. Resulting sensorgrams were analyzed with a fit to a 1:1 binding model, using BIA evaluation software.

Test [2] addresses Hsp90 Nuclear Binding Domain (NBD) (Aspergillus fumigatus, UniProt P40292). Briefly: Surface Plasmon Resonance (SPR) binding, A. fumigatus Hsp90 NBD. To be noted: biotinylated Hsp90 NBD on streptavidin chip, 25° C., 1:1 binding model; NB undefined. The method, then: as §1, §2
A further test relates to CaCl2. Briefly: Antifungal sensitivity testing (broth microdilution MIC). It counts as cell-based. Particulars: Table 4; 96-well broth microdilution. The method, then:
Antifungal Sensitivity Testing. Minimum inhibitory concentrations (MICs) were determined in flat bottom, 96-well plate format using a modified broth microdilution protocol as previously described (Singh et al., PLoS Pathog. 5, e1000532 (2009); LaFayette et al., PLoS Pathog. 6, 79-80 (2010)). Compounds were formulated in dimethyl sulfoxide (DMSO, Sigma-Aldrich Co.); fluconazole was dissolved in sterile ddH2O. Each compound was tested in duplicate in at least two independent experiments. To test for fungicidal activity, cultures from MIC plates were spotted on YPD agar plates using a spotter (Frogger, V&P Scientific, Inc.). Plates were photographed after 24 h of incubation at 30° C.

In brackets after ≈: the same amount, converted by molar mass.

Hsp90 Nuclear Binding Domain (NBD) (Aspergillus fumigatus, UniProt P40292), sequence (P40292 whole entry, looked up, the tested form may be a part): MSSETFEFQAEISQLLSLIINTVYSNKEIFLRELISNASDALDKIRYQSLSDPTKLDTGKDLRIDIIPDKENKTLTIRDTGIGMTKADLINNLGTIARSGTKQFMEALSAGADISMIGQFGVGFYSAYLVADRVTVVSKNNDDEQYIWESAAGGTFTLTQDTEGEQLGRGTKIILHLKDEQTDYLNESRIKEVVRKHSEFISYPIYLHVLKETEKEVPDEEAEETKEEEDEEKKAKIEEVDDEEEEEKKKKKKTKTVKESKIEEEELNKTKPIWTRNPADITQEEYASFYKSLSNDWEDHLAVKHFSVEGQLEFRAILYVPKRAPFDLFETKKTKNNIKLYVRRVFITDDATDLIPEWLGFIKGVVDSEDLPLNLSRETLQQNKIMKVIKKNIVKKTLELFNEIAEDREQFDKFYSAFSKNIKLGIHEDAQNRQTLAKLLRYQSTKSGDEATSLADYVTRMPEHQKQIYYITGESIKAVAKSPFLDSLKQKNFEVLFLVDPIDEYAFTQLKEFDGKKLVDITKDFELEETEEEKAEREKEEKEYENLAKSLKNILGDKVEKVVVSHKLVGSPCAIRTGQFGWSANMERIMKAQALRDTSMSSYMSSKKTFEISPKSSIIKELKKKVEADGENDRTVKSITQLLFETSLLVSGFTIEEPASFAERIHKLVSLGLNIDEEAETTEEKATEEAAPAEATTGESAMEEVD
Hsp90 Nuclear Binding Domain (NBD) (Candida albicans (strain SC5314 / ATCC MYA-2876) (Yeast), UniProt P46598), sequence (P46598 1-218 limits assumed): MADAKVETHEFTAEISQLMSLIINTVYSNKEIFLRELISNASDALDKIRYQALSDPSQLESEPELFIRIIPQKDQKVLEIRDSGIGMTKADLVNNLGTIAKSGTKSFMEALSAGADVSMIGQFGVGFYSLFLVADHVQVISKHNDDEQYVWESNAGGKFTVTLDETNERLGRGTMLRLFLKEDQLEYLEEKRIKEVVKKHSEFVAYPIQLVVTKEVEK

With `Nc1nc2sc(C(=O)NC3CCN(C[C@](O)(Cn4cncn4)c4ccc(F)cc4F)CC3)cc2n(-c2ccc3c(c2)N(c2ccccc2)CCO3)c1=O` [Compound I-7, (S)-3-amino-N-(1-(2-(2,4-difluorophenyl)-2-hydroxy-3-(1H-1,2,4-triazol-1-yl)propyl)piperidin-4-yl)-2-oxo-1-(4-phenyl-3,4-dihydro-2H-benzo[b][1,4]oxazin-6-yl)-1,2-dihydrothieno[2,3-b]pyrazine-6-carboxamide], the Kd in test [1] stood at 22.8 nM; in test [2] it was 76.4 nM. Moreover, the MIC50 with CaCl2 came to 0.75 µM (≈ 0.555 µg/mL).
The compound `Nc1nc2sc(C(=O)Nc3ccc(N4CCN(CC(O)(Cn5cncn5)c5ccc(F)cc5F)CC4)cc3)cc2n(-c2ccc3c(c2)N(c2ccccc2)CCO3)c1=O` (stereo not shown) [Compound I-8, 3-amino-N-(4-(4-(2-(2,4-difluorophenyl)-2-hydroxy-3-(1H-1,2,4-triazol-1-yl)propyl)piperazin-1-yl)phenyl)-2-oxo-1-(4-phenyl-3,4-dihydro-2H-benzo[b][1,4]oxazin-6-yl)-1,2-dihydrothieno[2,3-b]pyrazine-6-carboxamide] yielded an MIC50 against CaCl2 of 0.75 µM (≈ 0.613 µg/mL).
For `Nc1nc2sc(C(=O)Nc3ccc(CN4CCN(CC(O)(Cn5cncn5)c5ccc(F)cc5F)CC4)cc3)cc2n(-c2ccc3c(c2)N(c2ccccc2)CCO3)c1=O` (stereo not shown) [Compound I-9, 3-amino-N-(4-((4-(2-(2,4-difluorophenyl)-2-hydroxy-3-(1H-1,2,4-triazol-1-yl)propyl)piperazin-1-yl)methyl)phenyl)-2-oxo-1-(4-phenyl-3,4-dihydro-2H-benzo[b][1,4]oxazin-6-yl)-1,2-dihydrothieno[2,3-b]pyrazine-6-carboxamide], the results for the Kd in test [1] and in test [2] were 136 nM and 3870 nM, respectively. Further, the MIC50 in the test on CaCl2 was 10 µM (≈ 8.31 µg/mL).
For `Nc1nc2sc(C(=O)NC3CCN(CC(O)(Cn4cncn4)c4ccc(F)cc4F)CC3)cc2n(-c2ccc3ccn(-c4ccccc4)c3c2)c1=O` (stereo not shown) [Compound I-13, 3-amino-N-(1-(2-(2,4-difluorophenyl)-2-hydroxy-3-(1H-1,2,4-triazol-1-yl)propyl)piperidin-4-yl)-2-oxo-1-(1-phenyl-1H-indol-6-yl)-1,2-dihydrothieno[2,3-b]pyrazine-6-carboxamide], the Kd in test [1] is 50.4 nM; in test [2] it was 75.1 nM. Moreover, the MIC50 against CaCl2 is 0.37 µM (≈ 0.267 µg/mL).
In the case of `Nc1nc2sc(C(=O)N[C@H]3CCN(CC(O)(Cn4cncn4)c4ccc(F)cc4F)C3)cc2n(-c2ccc3c(c2)N(c2ccccc2)CCO3)c1=O` (stereo partly drawn) [Compound I-14, 3-amino-N-((3S)-1-(2-(2,4-difluorophenyl)-2-hydroxy-3-(1H-1,2,4-triazol-1-yl)propyl)pyrrolidin-3-yl)-2-oxo-1-(4-phenyl-3,4-dihydro-2H-benzo[b][1,4]oxazin-6-yl)-1,2-dihydrothieno[2,3-b]pyrazine-6-carboxamide], the values for the equilibrium dissociation constant (Kd) in test [1] and in test [2] were 23.4 nM and 146 nM, respectively. This compound gave an MIC50 against CaCl2 of 25 µM (≈ 18.1 µg/mL).
Consider `Nc1nc2sc(C(=O)NCCN3CCN(CC(O)(Cn4cncn4)c4ccc(F)cc4F)CC3)cc2n(-c2ccc3c(c2)N(c2ccccc2)CCO3)c1=O` (stereo not shown) [Compound I-15, 3-amino-N-(2-(4-(2-(2,4-difluorophenyl)-2-hydroxy-3-(1H-1,2,4-triazol-1-yl)propyl)piperazin-1-yl)ethyl)-2-oxo-1-(4-phenyl-3,4-dihydro-2H-benzo[b][1,4]oxazin-6-yl)-1,2-dihydrothieno[2,3-b]pyrazine-6-carboxamide], for which the Kd in test [1] amounted to 30.4 nM; in test [2], 188 nM. In addition, the MIC50 in the test with CaCl2 stood at 2.75 µM (≈ 2.11 µg/mL).
With `Nc1nc2sc(C(=O)NC3CCN(CC(O)(Cn4cncn4)c4ccc(F)cc4F)CC3)cc2n(-c2ccc3c(c2)N(c2ccccc2)CCC3)c1=O` (stereo not shown) [Compound I-16, 3-amino-N-(1-(2-(2,4-difluorophenyl)-2-hydroxy-3-(1H-1,2,4-triazol-1-yl)propyl)piperidin-4-yl)-2-oxo-1-(1-phenyl-1,2,3,4-tetrahydroquinolin-7-yl)-1,2-dihydrothieno[2,3-b]pyrazine-6-carboxamide], the Kd in test [1] came to 16 nM; in test [2] it was 140 nM. The compound also displayed an MIC50 with CaCl2 of 0.6 µM (≈ 0.443 µg/mL).
As to `Nc1nc2scc(C(=O)N[C@H]3CCN(CC(O)(Cn4cncn4)c4ccc(F)cc4F)C3)c2n(-c2ccc3c(c2)N(c2ccccc2)CCO3)c1=O` (stereo partly drawn) [Compound I-17, 3-amino-N-((3S)-1-(2-(2,4-difluorophenyl)-2-hydroxy-3-(1H-1,2,4-triazol-1-yl)propyl)pyrrolidin-3-yl)-2-oxo-1-(4-phenyl-3,4-dihydro-2H-benzo[b][1,4]oxazin-6-yl)-1,2-dihydrothieno[2,3-b]pyrazine-7-carboxamide], the dissociation constant (Kd) stood at 2670 nM in test [1] and 2700 nM in test [2]. This compound also had an MIC50 in the test with CaCl2 of 45 µM (≈ 32.7 µg/mL).
As to `Cc1ccc(-n2c(=O)c(N)nc3sc(C(=O)NC4CCN(C[C@](O)(Cn5cncn5)c5ccc(F)cc5F)CC4)cc32)cc1Oc1ccccc1` [Compound I-25, (S)-3-amino-N-(1-(2-(2,4-difluorophenyl)-2-hydroxy-3-(1H-1,2,4-triazol-1-yl)propyl)piperidin-4-yl)-1-(4-methyl-3-phenoxyphenyl)-2-oxo-1,2-dihydrothieno[2,3-b]pyrazine-6-carboxamide], the figures for the Kd in test [1] and in test [2] were 171 nM and 299 nM, respectively. This compound came in with an MIC50 in the test on CaCl2 of 0.5 µM (≈ 0.356 µg/mL).
`Nc1nc2sc(C(=O)Nc3ccc(COC4CCN(CC(O)(Cn5cncn5)c5ccc(F)cc5F)CC4)cc3)cc2n(-c2ccc3c(c2)N(c2ccccc2)CCO3)c1=O` (stereo not shown) [Compound I-46, 3-amino-N-(4-(((1-(2-(2,4-difluorophenyl)-2-hydroxy-3-(1H-1,2,4-triazol-1-yl)propyl)piperidin-4-yl)oxy)methyl)phenyl)-2-oxo-1-(4-phenyl-3,4-dihydro-2H-benzo[b][1,4]oxazin-6-yl)-1,2-dihydrothieno[2,3-b]pyrazine-6-carboxamide] returned an MIC50 in the test on CaCl2 of 0.85 µM (≈ 0.719 µg/mL).
With `Nc1nc2sc(C(=O)NC3CCCN(CC(O)(Cn4cncn4)c4ccc(F)cc4F)CC3)cc2n(-c2ccc3c(c2)N(c2ccccc2)CCO3)c1=O` (stereo not shown) [Compound I-50, 3-amino-N-(1-(2-(2,4-difluorophenyl)-2-hydroxy-3-(1H-1,2,4-triazol-1-yl)propyl)azepan-4-yl)-2-oxo-1-(4-phenyl-3,4-dihydro-2H-benzo[b][1,4]oxazin-6-yl)-1,2-dihydrothieno[2,3-b]pyrazine-6-carboxamide], in test [1], the Kd amounted to 42.7 nM. Moreover, the MIC50 against CaCl2 was 3.25 µM (≈ 2.45 µg/mL).
The compound `Nc1nc2sc(CNC3[C@@H]4CC[C@H]3CN(CC(O)(Cn3cncn3)c3ccc(F)cc3F)C4)cc2n(-c2ccc3c(c2)N(c2ccccc2)CCO3)c1=O` (stereo partly drawn) [Compound I-116, 3-amino-6-((((1R,5S)-3-(2-(2,4-difluorophenyl)-2-hydroxy-3-(1H-1,2,4-triazol-1-yl)propyl)-3-azabicyclo[3.2.1]octan-8-yl)amino)methyl)-1-(4-phenyl-3,4-dihydro-2H-benzo[b][1,4]oxazin-6-yl)thieno[2,3-b]pyrazin-2(1H)-one] returned a Kd in test [1] of 1350 nM. The compound also showed an MIC50 with CaCl2 of 3 µM (≈ 2.26 µg/mL).
In the test with CaCl2, `CN(Cc1cc2c(nc(N)c(=O)n2-c2ccc3c(c2)N(c2ccccc2)CCO3)s1)C1CCN(CC(O)(Cn2cncn2)c2ccc(F)cc2F)CC1` (stereo not shown) [Compound I-119, 3-amino-6-(((1-(2-(2,4-difluorophenyl)-2-hydroxy-3-(1H-1,2,4-triazol-1-yl)propyl)piperidin-4-yl)(methyl)amino)methyl)-1-(4-phenyl-3,4-dihydro-2H-benzo[b][1,4]oxazin-6-yl)thieno[2,3-b]pyrazin-2(1H)-one] displayed an MIC50 of 6.5 µM (≈ 4.81 µg/mL).
